Patent US7598384B2, “Tetrahydroquinolinones and their use as antagonists of metabotropic glutamate receptors” (Merz Pharma GmbH & Co. KGAA, priority 2004, dated 2009)
Counter-ions that a name gives are not always drawn.

melting point [°C]	SMILES
232 to 233	CCC1CC(=O)c2ccc(-c3ccc(OC)cc3)nc2C1 (stereo not drawn) (as salt: hydrochloride) [Example 70, 7-Ethyl-2-(4-methoxy-phenyl)-7,8-dihydro-6H-quinolin-5-one hydrochloride]
233 to 234	COc1cccc(-c2ccc3c(n2)CC2(CCCC2)CC3=O)c1 (as salt: hydrochloride) [Example 59, 2-(3-Methoxy-phenyl)-7,7-tetramethylene-7,8-dihydro-6H-quinolin-5-one hydrochloride]
195 to 196	CCCCCCc1ccc2c(n1)CC(c1ccc(N(C)C)cc1)CC2=O (stereo not drawn) (as salt: hydrochloride) [Example 32, 7-(4-Dimethylamino-phenyl)-2-hexyl-7,8-dihydro-6H-quinolin-5-one dihydrochloride]
135 to 136	CC(C)Sc1nc2c(cc1C#N)C(=O)CC(C)(C)C2 [Example 3, 2-Isopropylsulfanyl-7,7-dimethyl-5-oxo-5,6,7,8-tetrahydroquinoline-3-carbonitrile]
199 to 200	CCCCCCc1ccc2c(n1)C(C)CC(C)(C)C2=O (stereo not drawn) (as salt: hydrochloride) [Example 55, 2-Hexyl-6,6,8-trimethyl-7,8-dihydro-6H-quinolin-5-one hydrochloride]
126 to 127	CC1(C)CC(=O)c2ccc(OC3CCCCC3)nc2C1.Cl
78 to 79	C=C(C)CSc1nc2c(cc1C#N)C(=O)CC(C)(C)C2 [Example 4, 7,7-Dimethyl-2-(2-methylallysulfanyl)-5-oxo-5,6,7,8-tetrahydroquinoline-3-carbonitrile]
85 to 86	C=C(C)CSc1nc2c(cc1C#N)C(=O)CCC2 [Example 6, 2-(2-Methylallylsulfanyl)-5-oxo-5,6,7,8-tetrahydroquinoline-3-carbonitrile]
215 to 216	CC1(C)CC(=O)c2ccc(NCc3ccccc3)nc2C1.Cl
221 to 222	O=C1CC2(CCCCC2)Cc2nc(C34CC5CC(CC(C5)C3)C4)ccc21 (as salt: hydrochloride) [Example 27, 2-Adamantan-1-yl-7,7-pentamethylene-7,8-dihydro-6H-quinoline-5-one hydrochloride]
157 to 158	CC(C)COc1ccc2c(n1)CC(C)(C)CC2=O.Cl
100 to 102	CCCSc1nc2c(cc1C#N)C(=O)CC(C)(C)C2 [Example 2, 7,7-Dimethyl-5-oxo-2-propylsulfanyl-5,6,7,8-tetrahydroquinoline-3-carbonitrile]
185 to 187	Cl.O=C1CCCc2nc(Cc3ccccc3)ccc21
156 to 158	CC(Nc1ccc2c(n1)CC1CCCCC1C2=O)c1ccccc1 (stereo not drawn) [Example 112, 2-(1-Phenyl-ethylamino)-6,7,8,9,9a,10-hexahydro-5aH-benzo[g]quinolin-5-one]
276 to 277	O=C1CC2(CCCCC2)Cc2nc(OCc3ccccc3)ccc21 (as salt: hydrochloride) [Example 25, 2-Benzyloxy-7,7-pentamethylene-7,8-dihydro-6H-quinoline-5-one hydrochloride]
163 to 164	CC1(C)CC(=O)c2cc(C#N)c(NCc3ccccc3)nc2C1.Cl
203 to 204	CC1(C)CCc2nc(C34CC5CC(CC(C5)C3)C4)ccc2C1=O (as salt: hydrochloride) [Example 41, 2-Adamantan-1-yl-6,6-dimethyl-7,8-dihydro-6H-quinolin-5-one hydrochloride]
210 to 212	CC1(C)CC(=O)c2ccc(C34CC5CC(CC(C5)C3)C4)nc2C1.Cl
173 to 175	CC1(C)CC(=O)c2ccc(CCc3ccccc3)nc2C1.Cl
202 to 204	CC1(C)CC(=O)c2ccc(Cc3ccccc3)nc2C1.Cl
149 to 150	COc1ccc(Nc2ccc3c(n2)CC(C)(C)CC3=O)cc1 [Example 86, 2-(4-Methoxy-phenylamino)-7,7-dimethyl-7,8-dihydro-6H-quinolin-5-one]
50 to 52	CCCCSc1nc2c(cc1C#N)C(=O)CC(C)(C)C2 [Example 1, 2-Butylsulfanyl-7,7-dimethyl-5-oxo-5,6,7,8-tetrahydroquinoline-3-carbonitrile]
160 to 162	COc1ccccc1CCc1ccc2c(n1)CCCC2=O.Cl
164 to 166	O=C1c2ccc(N3CCN(c4ccccc4)CC3)nc2CC2CCCCC12 (stereo not drawn) [Example 114, 2-(4-Phenyl-piperazin-1-yl)-6,7,8,9,9a,10-hexahydro-5aH-benzo[g]quinolin-5-one]
87 to 88	CC1(C)CC(=O)c2ccc(OCc3ccccc3)nc2C1.Cl
212 to 213	CCCC1CCc2nc(-c3ccc(OC)cc3)ccc2C1=O (stereo not drawn) (as salt: hydrochloride) [Example 60, 2-(4-Methoxy-phenyl)-6-propyl-7,8-dihydro-6H-quinolin-5-one hydrochloride]
214 to 216	Cl.O=C1CCCc2nc(C34CC5CC(CC(C5)C3)C4)ccc21
75 to 76	CC(C)CSc1nc2c(cc1C#N)C(=O)CC(C)(C)C2 [Example 5, 2-Isobutylsulfanyl-7,7-dimethyl-5-oxo-5,6,7,8-tetrahydroquinoline-3-carbonitrile]
99 to 100	CC1(C)CC(=O)c2cc(C#N)c(N3CCCCC3)nc2C1 [Example 7, 7,7-Dimethyl-5-oxo-2-piperidin-1-yl-5,6,7,8-tetrahydro-quinoline-3-carbonitrile]
214 to 216	O=C1c2ccc(Nc3ccccc3)nc2CC2CCCCC12 (stereo not drawn) [Example 111, 2-Phenylamino-6,7,8,9,9a,10-hexahydro-5aH-benzo[g]quinolin-5-one]
